Laboratory results as given in patent publication US20190071416A1, “COMPOUNDS FOR TREATMENT OF CANCER AND EPIGENETICS” (Agency For Science, Technology and Research, priority 2015, published 2019).

Biological target: T1, SMYD3 (Homo sapiens, UniProt Q9H7B4)
T1 sequence (Q9H7B4 1-428): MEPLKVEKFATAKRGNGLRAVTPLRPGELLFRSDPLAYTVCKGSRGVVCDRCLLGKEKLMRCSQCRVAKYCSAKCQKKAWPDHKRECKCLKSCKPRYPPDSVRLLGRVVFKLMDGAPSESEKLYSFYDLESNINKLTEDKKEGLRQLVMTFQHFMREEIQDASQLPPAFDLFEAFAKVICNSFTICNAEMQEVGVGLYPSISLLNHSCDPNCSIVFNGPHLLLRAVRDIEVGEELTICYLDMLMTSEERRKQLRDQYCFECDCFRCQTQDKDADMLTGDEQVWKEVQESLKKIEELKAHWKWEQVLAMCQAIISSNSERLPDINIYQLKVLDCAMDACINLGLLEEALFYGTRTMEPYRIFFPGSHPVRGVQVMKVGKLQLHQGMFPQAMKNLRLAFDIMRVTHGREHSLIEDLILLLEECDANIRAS
Assay: SMYD3 biochemical assay (MTase-Glo, MAP3K2 peptide substrate)
Settings: Table 3; MTase assay, MAP3K2 peptide substrate; read-out: IC50
Summary of the method: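 Luminescent readout of SAH production (coupled SAH→ATP conversion, MTase-Glo) after SMYD3 reacted 30 min at room temperature with 1.0 µM SAM and 10 µM MAP3K2 peptide, both final. Non-linear regression gave IC50 values.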

Compound	IC50
CCCOC(=O)N1CCN(C(=O)c2ccc3c(Cl)cc(-c4ccc(C(=O)NC5CC5)cc4)nc3c2)CC1 [B210, Propyl 4-(4-chloro-2-(4-(cyclopropylcarbamoyl)phenyl)quinoline-7-carbonyl)piperazine-1-carboxylate]	26 nM
CCCOC(=O)N1CCN(C(=O)c2ccc3c(Cl)cc(-c4ccc5[nH]cc(C)c5c4)nc3c2)CC1 [B211, Propyl 4-(4-chloro-2-(3-methyl-1H-indol-5-yl)quinoline-7-carbonyl)piperazine-1-carboxylate]	1010 nM
CCCOC(=O)N1CCN(C(=O)c2ccc3c(Cl)cc(-c4ccc5nc(C)oc5c4)nc3c2)CC1 [B212, Propyl 4-(4-chloro-2-(2-methylbenzo[d]oxazol-6-yl)quinoline-7-carbonyl)piperazine-1-carboxylate]	240 nM
CCCOC(=O)N1CCN(C(=O)c2ccc3c(Cl)cc(-c4ccc5ocnc5c4)nc3c2)CC1 [B213, Propyl 4-(2-(benzo[d]oxazol-5-yl)-4-chloroquinoline-7-carbonyl)piperazine-1-carboxylate]	330 nM
CCCOC(=O)N1CCN(C(=O)c2ccc3c(Cl)cc(-c4cc(C)n(C)c4C)nc3c2)CC1 [B214, Propyl 4-(4-chloro-2-(1,2,5-trimethyl-1H-pyrrol-3-yl)quinoline-7-carbonyl)piperazine-1-carboxylate]	120 nM
CCCOC(=O)N1CCN(C(=O)c2ccc3c(Cl)cc(-c4cnn(C)c4)nc3c2)C[C@H]1C [B215, Propyl (R)-4-(4-chloro-2-(1-methyl-1H-pyrazol-4-yl)quinoline-7-carbonyl)-2-methylpiperazine-1-carboxylate]	110 nM
CCCOC(=O)N1CCN(C(=O)c2ccc3c(Cl)cc(-c4ccc(C(=O)NC)c(F)c4)nc3c2)C[C@H]1C [B216, Propyl (R)-4-(4-chloro-2-(3-fluoro-4-(methylcarbamoyl)phenyl)quinoline-7-carbonyl)-2-methylpiperazine-1-carboxylate]	230 nM
CCCOC(=O)N1CCN(C(=O)c2ccc3c(Cl)cc(-c4cc(F)c(O)c(F)c4)nc3c2)C[C@H]1C [B217, Propyl (R)-4-(4-chloro-2-(3,5-difluoro-4-hydroxyphenyl)quinoline-7-carbonyl)-2-methylpiperazine-1-carboxylate]	130 nM
CCCOC(=O)N1CCN(C(=O)c2ccc3c(Cl)cc(-c4ccc(O)c(C)c4)nc3c2)C[C@H]1C [B218, Propyl (R)-4-(4-chloro-2-(4-hydroxy-3-methylphenyl)quinoline-7-carbonyl)-2-methylpiperazine-1-carboxylate]	220 nM
CCCOC(=O)N1CCN(C(=O)c2ccc3c(Cl)cc(-c4cnn(C)c4)nc3c2)[C@@H](C)C1 [B219, Propyl (S)-4-(4-chloro-2-(1-methyl-1H-pyrazol-4-yl)quinoline-7-carbonyl)-3-methylpiperazine-1-carboxylate]	230 nM
CCCOC(=O)N1CCN(C(=O)c2ccc3c(Cl)cc(-c4cc(F)c(O)c(F)c4)nc3c2)[C@@H](C)C1 [B220, Propyl (S)-4-(4-chloro-2-(3,5-difluoro-4-hydroxyphenyl)quinoline-7-carbonyl)-3-methylpiperazine-1-carboxylate]	350 nM
CCCOC(=O)N1CCN(C(=O)c2ccc3c(Cl)cc(-c4ccnc5[nH]ccc45)nc3c2)CC1 [B221, Propyl 4-(4-chloro-2-(1H-pyrrolo[2,3-b]pyridin-4-yl)quinoline-7-carbonyl)piperazine-1-carboxylate]	800 nM
CCCOC(=O)N1CCN(C(=O)c2ccc3c(Cl)cc(-c4ccc5[nH]c(C)nc5c4)nc3c2)CC1 [B222, Propyl 4-(4-chloro-2-(2-methyl-1H-benzo[d]imidazol-5-yl)quinoline-7-carbonyl)piperazine-1-carboxylate]	46 nM
CCCOC(=O)N1CCN(C(=O)c2ccc3c(Cl)cc(-c4ccc(COCCOC)cc4)nc3c2)CC1 [B224, Propyl 4-(4-chloro-2-(4-((2-methoxyethoxy)methyl)phenyl)quinoline-7-carbonyl)piperazine-1-carboxylate]	800 nM
CCCOC(=O)N1CCN(C(=O)c2ccc3c(Cl)cc(-c4ccc(O)c(C)c4)nc3c2)[C@@H](C)C1 [B225, Propyl (S)-4-(4-chloro-2-(4-hydroxy-3-methylphenyl)quinoline-7-carbonyl)-3-methylpiperazine-1-carboxylate]	230 nM
CCCCC(=O)N1CCN(C(=O)c2ccc3c(Cl)ccnc3c2)CC1 [B226, 1-(4-(4-chloroquinoline-7-carbonyl)piperazin-1-yl)pentan-1-one]	7900 nM
CCCOC(=O)N1CCN(C(=O)c2ccc3c(Cl)cc(-c4cc(C)n(C)c4CN)nc3c2)CC1 [B227, Propyl 4-(2-(2-(aminomethyl)-1,5-dimethyl-1H-pyrrol-3-yl)-4-chloroquinoline-7-carbonyl)piperazine-1-carboxylate]	770 nM

Compound	IC50
CCCOC(=O)N1CCN(C(=O)c2ccc3c(Cl)cc(-c4ccn(C(=O)OC)c4)nc3c2)CC1 [B228, Propyl 4-(4-chloro-2-(1-(methoxycarbonyl)-1H-pyrrol-3-yl)quinoline-7-carbonyl)piperazine-1-carboxylate]	300 nM
CCCOC(=O)N1CCN(C(=O)c2ccc3c(Cl)cc(-c4cnn(C(C)C)c4)nc3c2)CC1 [B229, Propyl 4-(4-chloro-2-(1-isopropyl-1H-pyrazol-4-yl)quinoline-7-carbonyl)piperazine-1-carboxylate]	1100 nM
CCCOC(=O)N1CCN(C(=O)c2ccc3c(Cl)cc(-c4cnn(C(F)F)c4)nc3c2)CC1 [B230, Propyl 4-(4-chloro-2-(1-(difluoromethyl)-1H-pyrazol-4-yl)quinoline-7-carbonyl)piperazine-1-carboxylate]	700 nM
CCCOC(=O)N1CCN(C(=O)c2ccc3c(Cl)cc(-c4ccn(S(=O)(=O)N(C)C)c4)nc3c2)CC1 [B231, Propyl 4-(4-chloro-2-(1-(N,N-dimethylsulfamoyl)-1H-pyrrol-3-yl)quinoline-7-carbonyl)piperazine-1-carboxylate]	630 nM
CCCOC(=O)N1CCN(C(=O)c2ccc3c(Cl)cc(-c4ccc5c(c4)CNC5=O)nc3c2)CC1 [B232, Propyl 4-(4-chloro-2-(1-oxoisoindolin-5-yl)quinoline-7-carbonyl)piperazine-1-carboxylate]	150 nM
CNC(=O)c1ccc(-c2cc(Cl)c3ccc(C(=O)N4CCN(C(=O)OCCCF)[C@H](C)C4)cc3n2)cc1 [B233, 3-Fluoropropyl (R)-4-(4-chloro-2-(4-(methylcarbamoyl)phenyl)quinoline-7-carbonyl)-2-methylpiperazine-1-carboxylate]	160 nM
C[C@@H]1CN(C(=O)c2ccc3c(Cl)cc(-c4ccn(C)c4)nc3c2)CCN1C(=O)OCCCF [B234, 3-Fluoropropyl (R)-4-(4-chloro-2-(1-methyl-1H-pyrrol-3-yl)quinoline-7-carbonyl)-2-methylpiperazine-1-carboxylate]	98 nM
C[C@@H]1CN(C(=O)c2ccc3c(Cl)cc(-c4cc(F)c(O)c(F)c4)nc3c2)CCN1C(=O)OCCCF [B235, 3-Fluoropropyl (R)-4-(4-chloro-2-(3,5-difluoro-4-hydroxyphenyl)quinoline-7-carbonyl)-2-methylpiperazine-1-carboxylate]	230 nM
CCCOC(=O)N1CCN(C(=O)c2ccc3c(Cl)cc(-c4ccc(C(=O)NC)c(C)c4)nc3c2)CC1 [B236, Propyl 4-(4-chloro-2-(3-methyl-4-(methylcarbamoyl)phenyl)quinoline-7-carbonyl)piperazine-1-carboxylate]	360 nM
CCCOC(=O)N1CCN(C(=O)c2ccc3c(Cl)cc(-c4ccc5oc(C)nc5c4)nc3c2)CC1 [B237, Propyl 4-(4-chloro-2-(2-methylbenzo[d]oxazol-5-yl)quinoline-7-carbonyl)piperazine-1-carboxylate]	200 nM
CCCOC(=O)N1CCN(C(=O)c2ccc3c(Cl)cc(-c4ccc(N5CCCC5)c(F)c4)nc3c2)CC1 [B238, Propyl 4-(4-chloro-2-(3-fluoro-4-(pyrrolidin-1-yl)phenyl)quinoline-7-carbonyl)piperazine-1-carboxylate]	3500 nM
CCCOC(=O)N1CCN(C(=O)c2ccc3c(Cl)cc(-c4ccc(C(C)OCC)cc4)nc3c2)CC1 (stereo not drawn) [B239, Propyl 4-(4-chloro-2-(4-(1-ethoxyethyl)phenyl)quinoline-7-carbonyl)piperazine-1-carboxylate]	1300 nM
CCCOC(=O)N1CCN(C(=O)c2ccc3c(Cl)cc(-c4ccc(C(=O)NC)c(F)c4)nc3c2)[C@@H](C)C1 [B240, Propyl (S)-4-(4-chloro-2-(3-fluoro-4-(methylcarbamoyl)phenyl)quinoline-7-carbonyl)-3-methylpiperazine-1-carboxylate]	250 nM
CCCOC(=O)N1CCN(C(=O)c2ccc3c(Cl)cc(-c4ccc5ocnc5c4)nc3c2)[C@@H](C)C1 [B241, Propyl (S)-4-(2-(benzo[d]oxazol-5-yl)-4-chloroquinoline-7-carbonyl)-3-methylpiperazine-1-carboxylate]	240 nM
CCCOC(=O)N1CCN(C(=O)c2ccc3c(Cl)cc(-c4ccc(COCC5CC5)cc4)nc3c2)CC1 [B242, Propyl 4-(4-chloro-2-(4-((cyclopropylmethoxy)methyl)phenyl)quinoline-7-carbonyl)piperazine-1-carboxylate]	670 nM
CCCOC(=O)N1CCN(C(=O)c2ccc3c(Cl)cc(-c4ccc5ocnc5c4)nc3c2)C[C@H]1C [B243, Propyl (R)-4-(2-(benzo[d]oxazol-5-yl)-4-chloroquinoline-7-carbonyl)-2-methylpiperazine-1-carboxylate]	63 nM
